Reference: paper PMC13119441, “Linking Chemical Profile to Enzyme Inhibition: A Comprehensive Bio-Guided Study of Lippia origanoides Kunth Essential Oil” (Plants, 2026)
Structures can show the parent of a compound that is named as a salt.

Target: T1, butyrylcholinesterase (BChE) (Equus caballus, UniProt P81908)
T1 construct: purchased Merck Life Science S.r.l; (Milan, Italy); host or cells: equine serum
Experiment: In vitro BChE inhibition test (spectrophotometric, Ellman)
Assay type: biochemical, equine
Conditions: 1.0 µg/mL in reaction mixture, read-out: % Enzyme Inhibition (n = 3)
Experimental: The assays were optimized for essential oil matrices, particularly by adjusting solvent conditions (DMSO content), substrate/enzyme ratios, and assay timing to ensure measurements within the linear kinetic range. The percentage inhibition of AChE, BChE, α-glucosidase, lipase and tyrosinase was measured according to the equation below: % Inhibition=∆AControl−∆A(Sample)/∆AControl×100 where: ∆A (Control) = A Control − A Control Blank∆A(Sample) = A Sample − A Sample Blank
The buffers used in the experiment were: buffer A (50 mM Tris-HCl, pH 8), buffer B (50 mM Tris-HCl, pH 8, supplemented with 0.1% bovine albumin and 0.1% TWEEN20) and buffer C (50 mM Tris-HCl, pH 8, containing 0.1 M NaCl and 0.02 M MgCl2•6H2O). The solutions for both enzymes (0.22 U/mL) were prepared using buffer B. Acetylthiocholine iodide (ATCI) at 1.5 mM was dissolved in Millipore water, while butyrylthiocholine iodide (BTCI) was dissolved in buffer A. Ellman’s reagent solution (3 mM) was prepared in buffer C.
The final concentration of DMSO in the reaction mixture was 0.3%. The mixture was incubated at 30 °C for 6 min, after which absorbance was measured at 405 nm.

T1 sequence (P81908 whole entry): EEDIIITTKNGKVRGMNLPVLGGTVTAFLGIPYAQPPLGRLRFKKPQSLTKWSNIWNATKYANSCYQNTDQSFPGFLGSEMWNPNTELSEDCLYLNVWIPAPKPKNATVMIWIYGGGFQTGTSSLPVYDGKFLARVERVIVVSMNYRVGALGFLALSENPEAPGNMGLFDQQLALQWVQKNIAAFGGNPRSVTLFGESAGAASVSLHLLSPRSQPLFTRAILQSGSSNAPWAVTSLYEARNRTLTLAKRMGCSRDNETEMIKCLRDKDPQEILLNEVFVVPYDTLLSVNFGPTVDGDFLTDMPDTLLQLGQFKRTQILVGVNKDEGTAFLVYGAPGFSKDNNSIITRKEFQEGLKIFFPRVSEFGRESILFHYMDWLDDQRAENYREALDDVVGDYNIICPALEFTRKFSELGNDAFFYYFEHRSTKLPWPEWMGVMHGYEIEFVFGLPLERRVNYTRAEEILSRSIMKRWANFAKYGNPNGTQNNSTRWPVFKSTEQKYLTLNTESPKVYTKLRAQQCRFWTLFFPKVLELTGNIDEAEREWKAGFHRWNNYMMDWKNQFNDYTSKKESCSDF

Q: How did the inhibition at 1 µg/mL turn out when `COc1ccc2c3c1O[C@H]1C[C@@H](O)C=C[C@@]31CCN(C)C2` [Galanthamine, galanthamine hydrobromide] was run?
A: Its inhibition at 1 µg/mL is 24.7%.
